From US20120034608A1, “MICRORNA AS A BIOMARKER OF PANCREATIC ISLET BETA-CELL ENGAGEMENT” (Merck Sharp & Dohme Corp., priority 2009, published 2012)

Experiments:
Assay type in all cases: cell-based, rat
[1] = tested on: INS-1 832/3 cells; experiment: TAQMAN real-time quantitative RT-PCR of miRNA expression in INS-1 832/3 cells; conditions: for increase of the corresponding miRNA transcripts after transfection of precursor: overexpression experiments, TAQMAN real-time quantitative RT-PCR
Procedure: INS-1 832/3 and 832/13 cells were maintained in RPMI 1640 with 10% FBS and 11 mM glucose. For GLP-1 treatment, GLP-1 (7-37) amide (ABCHEM) was added in the media in the presence of 16 mM glucose for 24 hours. Total RNA was extracted with TRIZOL as in Example 1. Rat islet isolation and treatment was as follows. Pancreatic islets of Langerhans were isolated from the pancreas of normal Sprague-Dawley rats (Charles River, Ind.) by collagenase digestion and discontinuous Ficoll gradient separation (15). Islets were cultured for 2 hours in RPMI 1640 medium with 11 mM glucose for recovery from the isolation process. Then 100-200 islets were treated with 50 nM GLP-1 in the media with 11 mM glucose for 24 hours. RNA was extracted with TRIZOL as in Example 1 for quantification of microRNA species.
Fluorogenic TAQMAN detector probes specific for miR-132 (Cat# TM457), miR-212 (Cat# TM515), miR-375 (Cat#TM564), and miR-217 (Cat#1133) were purchased from Applied Biosystems (Foster City, Calif.). The TAQMAN RT-PCR reactions were performed according to the manufacturer's instructions.
Relative miRNA levels for the miRNAs of interest were determined by real-time reverse transcription reaction using the ABI PRISM 7900 Sequence Detection System from Applied Biosystems (Foster City, Calif.) according to the manufacturer's protocol. Briefly, 10 ng of total RNA was mixed with 1 U MultiScribe Reverse Transcriptase, 0.25 U RNase Inhibitor, 3 μL hairpin-looped miRNA-specific RT primer, 1 mM dNTPs and 1× Reverse Transcription Buffer in a total volume of 15 μL. The mixture was incubated at 16° C. for 30 minutes, 42° C. for another 30 minutes, and the reaction was stopped by heating to 85° C. for 5 minutes. Real time PCR reaction was set up in 20 μL volume with 1.33 μL first strand cDNA, 1× TAQMAN MicroRNA Assay Mix and 1× TAQMAN Universal PCR Master Mix. After activation of the AMPLITAQ Gold DNA polymerase at 95° C. for 10 minutes, 40 cycles of two-step PCR were run (95° C. for 15 seconds and 60° C. for 60 seconds). Data were collected and analyzed with SDS v.2.2.2 software (Applied Biosystems). 4.5S RNA or U6 probe (Applied Biosystems) was used as a reference to determine the relative abundance of each miRNA in different samples. TAQMAN RT-PCR was performed according the manufacturer's instructions.
The absolute miRNA levels were determined by reverse transcription reactions in GeneAmp PCR system 9700 followed by amplification using the ABI PRISM 7900HT Sequence Detection System from Applied Biosystems (Foster City, Calif.) through 40 cycles. 4.5S RNA (H) probe (Cat#TM1716) or U6 (Cat#TM1973) was used as reference to determine the relative abundance of each miRNA in different samples. The induction of miR-132 and miR-212 expression by GLP-1 started around 4 hour post-GLP-1 treatment, peaked at 24 hours and was sustained up to 48 hours (FIG. 2).

[2] = tested on: INS-1 832/3 cells; experiment: LANCE cAMP assay in INS-1 832/3 cells; conditions: one hour stimulation, 5.5 mM glucose
Procedure: (§1) For the Lance cAMP assay, INS1 832/3 and 832/13 cells were grown to near confluency in flasks. 9000 cells were incubated with GLP-1 or Exendin-4 in stimulation buffer at concentrations as indicated in figure legends for 1 hour at 37° C. cAMP levels were measured using LANCE cAMP assay kit in 384-well format according to manufacture's protocol (Perkin Elmer, Waltham, Mass.). Counts were calculated to cAMP concentrations using a cAMP standard curve. Each condition was measured in quadruplicate.

[3] = tested on: INS-1 832/13 cells; experiment: LANCE cAMP assay in INS-1 832/13 cells; conditions: for cAMP levels: cells overexpressing the precursor vs scramble control
From the text: (§2) We overexpressed the precursors of miR-132 and miR-212 to evaluate their possible contribution to β-cell function. MicroRNA miR-375 was included as a control as it been reported to have an inhibitory effect on GDIS (Poy et al., Nature 432: 226-230 (2004)). Chemically modified Pre-miR™ miRNA precursor molecules and Anti-miR™ miRNA inhibitors were purchased from Ambion (Foster City, Calif.). miRCURY LNA™ microRNA knockdown oligonucleotides were purchased from Exiqon (Woburn, Mass.). The oligonucleotide molecules were delivered to the cells by the Nucleofector Device (Amaxa, Gaithersburg, Md.). In brief, INS-1 cells were trypsinized, centrifuged, and resuspended in 100 μl Nucleofector solution V. Then 100-500 pmole RNA oligonucleotides were transfected to 3-million cells at the concentration of 1-5 μM with the Amaxa Nucleofector Device. Scramble controls from the vendors were used with the same transfection method. After electroporation, the cells were transferred to regular culture medium and then split into replicates in 96-well plates. Insulin secretion assay or LANCE cAMP assay were performed 48 hours post electroporation.
as §1

[4] = tested on: INS-1 832/3 cells; experiment: glucose dependent insulin secretion (GDIS) assay in INS-1 832/3 cells; conditions: for basal insulin secretion at low glucose: 2 mM glucose; for basal insulin secretion at low glucose / insulin release stimulated by KCl / insulin release as percentage of insulin secretion of intracellular insulin content / glucose-dependent insulin secretion (GDIS): 48 hours post-transfection; for GLP-1 potentiation of GDIS: 16 mM glucose + 10 nM GLP-1, 48 hour post transfection; for GLP-1 potentiation of GDIS / glucose-dependent insulin secretion (GDIS): vs scramble control; for insulin release stimulated by KCl: 30 mM KCl; for glucose-dependent insulin secretion (GDIS): two hour incubation in KRB; for insulin content: cell lysates, normalized to total protein
From the text: as §2
(§3) INS-1 cell glucose dependent insulin secretion (GDIS) assay was performed as follows. The GDIS assay was performed with cells grown to near confluency in 96-well plates. Prior to the assay, cells were washed once with PBS and pre-incubated for two hours in freshly prepared Krebs-Ringer Bicarbonate (KRB) medium without glucose. The medium were then replaced with KRB with 2, 8 or 16 mM glucose or along with 10 nM GLP-1. The cells were incubated for another two hours in a CO2 incubator. The media was then removed at the end of incubation, and assayed for insulin levels by Ultra-sensitive Rat Insulin ELISA kit (ALPCO, Salem, N.H.) or insulin immunoassay by Gyrolab workstation (GYROS AB, Uppsala, Sweden). Intracellular insulin was extracted by acid ethanol method for measuring intracellular insulin content. Total protein was measured by Pierce 660 nm Protein Assay from Pierce Biotechnology, Inc. (Rockford, Ill.).

[5] = tested on: INS-1 832/13 cells; experiment: glucose dependent insulin secretion (GDIS) assay in INS-1 832/13 cells; conditions: transfected cells vs scramble control
From the text: as §2, §3

[6] = tested on: INS-1 832/3 cells; experiment: TAQMAN quantification of insulin (Ins1) transcripts in INS-1 832/3 cells; conditions: normalized to β-actin
From the text: as §2
We further measured the insulin content and found it was unchanged by miR-132 or miR-212 overexpression (FIG. 7B). […] Furthermore, we measured insulin transcripts by TAQMAN analysis in cells over-expressing these microRNA molecules. Ins1 TAQMAN probe from Applied Biosystems (Foster City, Calif.) was used to measure insulin transcript levels and normalized to β-actin. […] In this series of experiments, miR-132, miR-212 and miR-375 transcripts were increased by about 1000-fold, 2000-fold, and 8-fold, respectively, as assayed by TAQMAN real-time quantitative RT-PCR.

[7] = 50 nM GLP-1, 50 nM Exendin-4, 5 μM IBMX, 1 μM Foskolin (FIG. 6A)

Substance	miR-132 expression [1, 7]	miR-212 expression [1, 7]	miR-375 expression [1, 7]	cAMP accumulation [2]	cAMP accumulation ([3]; one hour stimulation, 5.5 mM glucose)	increase of the corresponding miRNA transcripts after transfection of precursor [1]	cAMP levels [3]	basal insulin secretion at low glucose [4]	GLP-1 potentiation of GDIS [4]	insulin release stimulated by KCl [4]	insulin release as percentage of insulin secretion of intracellular insulin content [4]	glucose-dependent insulin secretion (GDIS) [4]	insulin content [4]	effect of GLP-1 (GLP-1 potentiation) [5]	insulin secretion (GDIS) [5]	insulin (Ins1) transcripts [6]
Exendin-4: GLP-1 analog, cAMP raising agent	significantly increased	significantly increased	remained unchanged	dose-dependent accumulation	loss of such response											
miR-132: chemically modified Pre-miR miRNA precursor molecule (Ambion) transfected to overexpress miR-132 (guide UAACAGUCUACAGCCAUGGUCG; chemically modified Pre-miR precursor, pattern not given here)						about 1000 fold	no changes	unchanged	robustly increased	significantly enhanced	significantly increased	significantly enhanced	unchanged	augmented	significantly increased	no effect
miR-212: chemically modified Pre-miR miRNA precursor molecule (Ambion) transfected to overexpress miR-212 (guide UAACAGUCUCCAGUCACGGCC; chemically modified Pre-miR precursor, pattern not given here)						~2000 fold	no changes	unchanged	enhanced	significantly enhanced	significantly increased	significantly enhanced	unchanged	augmented	significantly increased	no effect
miR-375: chemically modified Pre-miR miRNA precursor molecule (Ambion) transfected to overexpress miR-375, control (guide UUUGUUCGUUCGGCUCGCGUGA; chemically modified Pre-miR precursor, pattern not given here)						~8 fold			not		decreased	significantly suppressed	reduction			moderately down-regulated
